# Results from publication PMC10648852, “Molecular drivers of resistance to sulbactam-durlobactam in contemporary clinical isolates of Acinetobacter baumannii” (Antimicrobial Agents and Chemotherapy, 2023).
# Read-outs that look alike come from different tables or passages of the source.
# Columns and labels:
# [1] = tested on: A. baumannii KAB1544 and efflux overexpression mutants; assay: Broth microdilution MIC, isogenic A. baumannii overexpression efflux mutants; type: cell-based; conditions: for MIC: Acinetobacter baumannii
# Description: (§1) To further assess the role of efflux in SUL-DUR activity against Acinetobacter spp., two panels of A. baumannii isogenic strains were tested. The first consisted of 7 members of an A. baumannii transposon library ([28]) with single gene disruptions in the adeABC, adeIJK, or adeT loci as compared to the parent strain, AB5075. […] This panel of strains consists of four different point mutants in AdeR and five different point mutants in AdeS, which result in the upregulation of AdeABC expression. In addition, this panel contains chromosomal deletions of adeL and adeN, which result in overexpression of AdeFGH and AdeIJK, respectively ([29]).
# In contrast, sulbactam, SUL-DUR, and imipenem MIC values were unaffected by these mutants (Table 4).
# (§2) The AB5075 parent strain as well as transposon interrupted AdeABC, AdeIJK, and AdeT were purchased from the Manoil laboratory at the University of Washington from their arrayed transposon mutant collection ([28]). The KAB1544 parent as well as efflux pump regulator mutants and deletions were constructed as previously described ([29]).
# (§3) Antimicrobial susceptibility testing was performed using broth microdilution following standardized methods established by the Clinical Laboratory Standards Institute (CLSI) ([35], [36]). Quality control testing was performed as specified by CLSI using A. baumannii NCTC 13304 ([35]). MIC values were interpreted using CLSI breakpoints for all antimicrobial agents except those for which CLSI breakpoints are not available ([35]). SUL-DUR was tested as twofold dilutions of sulbactam in combination with a fixed concentration of 4 µg/mL durlobactam ([35]).
# [2] = tested on: A. baumannii AB5075 and transposon mutants in efflux genes; assay: Broth microdilution MIC, isogenic A. baumannii transposon mutants in efflux genes; type: cell-based; conditions: for In vitro activity (MIC): tested in duplicate
# Description: as §1
# The parent and each isogenic mutant strain in both panels was measured for susceptibility to sulbactam, durlobactam, SUL-DUR, imipenem, and gentamicin. […].
# as §2, §3
# [3] = tested on: ARC7093 (AdeJ [G288S]) versus NCTC 13304; assay: Ethidium bromide uptake (accumulation) assay; type: cell-based, A. baumannii; conditions: over 20 min; 8 µM EtBr; P < 0.0001
# Text: This AdeJ variant has been previously described in the context of carbapenem resistance due to the overexpression of the AdeJ pump, although the association was only made based on genotype, not phenotype ([31]). The efflux capacity of ARC7093 was, therefore, compared to NCTC 13304, a SUL-DUR-susceptible clinical isolate with wild-type AdeIJK, in an ethidium bromide accumulation assay. […] Therefore, the AdeJ (G288S) variant may play a role in susceptibility to SUL-DUR in Acinetobacter spp.
# NCTC 13304 and ARC7093 were cultured overnight on Tryptic Soy Blood Agar plates. Single colonies were used to inoculate 2 mL of Mueller-Hinton Cation-adjusted Broth (MHBII) and grown overnight at 35°C with shaking. On the day of the experiment, the overnight culture was diluted 100-fold into a flask containing 20 mL of MHBII and grown under the same conditions to OD600 ~0.2. Two-mL aliquots of this logarithmic phase culture were centrifuged. The pellets were gently re-suspended in 2-mL of sterile phosphate-buffered saline (pH 7.0) containing 8 µM EtBr. The cells were transferred to a black-wall, clear-bottom 96-well microplate, and EtBr fluorescence (excitation—530 nm, emission—590 nm) was measured over a period of 20 min in a SpectraMax M5e plate reader (Molecular Devices). Statistical significance for the accumulation of ethidium bromide was determined using an unpaired t-test.
# [4] = tested on: isogenic A. baylyi ADP1 panel encoding wildtype or mutant PBP3; assay: Broth microdilution MIC, isogenic A. baylyi panel (PBP3 variants with or without overexpressed β-lactamases); type: cell-based; conditions: for MIC: Acinetobacter baylyi, A. baylyi
# Description: To understand the effect of PBP3 variants on whole cell activity in the absence of other resistance determinants, the MIC values of sulbactam, SUL-DUR and comparator β-lactams were measured against an isogenic A. baylyi panel engineered to contain individual strains in which the endogenous PBP3 was replaced with the variant of interest.
# Each of the A. baylyi panel members were then transformed with plasmids that constitutively expressed five distinct, representative β-lactamases commonly found in Acinetobacter clinical isolates (TEM-1, ADC-30, OXA-23, OXA-24 or OXA-66) and evaluated for changes in antibiotic susceptibility. […] . […] .
# The isogenic A. baylyi panel used for chromosomal expression of various PBP3 mutants with or without constitutive expression of various β-lactamases were constructed as part of this study. The A. baylyi ADP1 PBP3 ORF was cloned into pUC19 with a gentamicin cassette inserted downstream of the PBP3 ORF for selection purposes. Additionally, 500 bp of flanking homology to the ADP1 genome were inserted upstream of the PBP3 ORF and downstream of the gentamicin cassette. […] Linear DNA consisting of the 500 bp upstream-PBP3-Gent-500 bp downstream fragment was cloned out of the pUC19 plasmid by PCR and used for transformation of the ADP1 strain. The strain was grown at 30°C overnight in LB medium shaking at 250 rpm. Seventy microliters of the overnight ADP1 culture were combined with 1 mL of fresh LB and 200 ng of linear DNA fragment and incubated for 5 h at 30°C and shaking at 200 rpm. Various dilutions of each culture were plated on LB agar supplemented with 10 µg/mL of gentamicin to select for transformants with successful chromosomal integrations. Integrants were verified by Sanger sequencing using purified genomic DNA.
# For the constitutive expression of various β-lactamases, ORFs of bla TEM-1, bla ADC-30, bla OXA-23, bla OXA-24, and bla OXA-66 were cloned by PCR from various clinical strains that encode these genes and inserted into the pWH1266 plasmid modified to encode a kanamycin cassette for selection. These plasmids along with an empty vector were used to transform each of the A. baylyi ADP1 strains engineered above that encode wild-type PBP3 or variants. Transformations were carried out as done above with selection on LB agar supplemented with 20 µg/mL of kanamycin.
# as §3
# A. baumannii PBP3 S390T [5] = assay: Acylation rate constant (kinact/Ki), fluorescence anisotropy competition with BOCILLIN; conditions: variant data from McLeod et al. (2018)
# A. baumannii PBP3 S395F [6] = tested on: A. baumannii PBP3 S395F; set-up: method as in McLeod et al. (2018); conditions: average ± SD, ref McLeod et al. (2018); cited from earlier work
# A. baumannii PBP3 N377Y = assay: Acylation rate constant (kinact/Ki), fluorescence anisotropy competition with BOCILLIN
# A. baumannii PBP3 N392T = assay: as above
# A. baumannii PBP3 Q488K = assay: as above
# A. baumannii PBP3 S395F [7] = assay: as above; conditions: variant data from McLeod et al. (2018)
# A. baumannii PBP3 H370Y = assay: as above
# A. baumannii PBP3 S390T [8] = tested on: A. baumannii PBP3 S390T; set-up: method as in McLeod et al. (2018); conditions: average ± SD, ref McLeod et al. (2018); cited from earlier work
# [9] = tested on: A. baumannii wild-type PBP3; assay: Acylation rate constant (kinact/Ki), fluorescence anisotropy competition with BOCILLIN; conditions: Wildtype PBP3
# [10] = AdeR A91V, AdeABC overexpressed, read-out: MIC
# [11] = AdeR D20N, AdeABC overexpressed, read-out: MIC
# [12] = AdeR E219A, AdeABC overexpressed, read-out: MIC
# [13] = AdeR P116L, AdeABC overexpressed, read-out: MIC
# [14] = AdeS A94V, AdeABC overexpressed, read-out: MIC
# [15] = AdeS G30D, AdeABC overexpressed, read-out: MIC
# [16] = AdeS G103D, AdeABC overexpressed, read-out: MIC
# [17] = AdeS R152K, AdeABC overexpressed, read-out: MIC
# [18] = AdeS T153M, AdeABC overexpressed, read-out: MIC
# [19] = Parent (KAB1544), no efflux pump overexpressed, read-out: MIC
smiles,measurement,setting,value
CC1=C[C@@H]2CN(C(=O)N2OS(=O)(=O)O)[C@@H]1C(N)=O [durlobactam],MIC,[1]; [10],32 mg/L
same,MIC,[1]; [11],64 mg/L
same,MIC,[1]; [12],128 mg/L
same,MIC,[1]; [13],64 mg/L
same,MIC,[1]; [14],64 mg/L
same,MIC,[1]; [15],64 mg/L
same,MIC,[1]; [16],64 mg/L
same,MIC,[1]; [17],64 mg/L
same,MIC,[1]; [18],32 mg/L
same,MIC,[1]; [19],128 mg/L
same,MIC,"[1]; ΔadeL, AdeFGH overexpressed",64 mg/L
same,MIC,"[1]; ΔadeN, AdeIJK overexpressed",128 mg/L
same,In vitro activity (MIC),[2]; Parent (AB5075),128 mg/L
same,In vitro activity (MIC),[2]; adeA::tn in AB5075,64 mg/L
same,In vitro activity (MIC),[2]; adeB::tn in AB5075,256 mg/L
same,In vitro activity (MIC),[2]; adeC::tn in AB5075,256 mg/L
same,In vitro activity (MIC),[2]; adeI::tn in AB5075,64 mg/L
same,In vitro activity (MIC),[2]; adeJ::tn in AB5075,32 mg/L
same,changes in MIC values as compared to the parent strain,"[2]; adeK::Tn mutant, AB5075",4 fold
same,In vitro activity (MIC),[2]; adeK::tn in AB5075,32 mg/L
same,In vitro activity (MIC),[2]; adeT::tn in AB5075,128 mg/L
same,changes in MIC values as compared to the parent strain,[2]; {},4 fold
CNC(C)C1CCC(N)C(OC2C(N)CC(N)C(OC3OCC(C)(O)C(NC)C3O)C2O)O1 (stereo not shown) [gentamicin],MIC,[1]; [10],32 mg/L
same,MIC,[1]; [11],16 mg/L
same,MIC,[1]; [12],2 mg/L
same,MIC,[1]; [13],16 mg/L
same,MIC,[1]; [14],16 mg/L
same,MIC,[1]; [15],32 mg/L
same,MIC,[1]; [16],2 mg/L
same,MIC,[1]; [17],16 mg/L
same,MIC,[1]; [18],32 mg/L
same,MIC,[1]; [19],2 mg/L
same,MIC,"[1]; ΔadeL, AdeFGH overexpressed",2 mg/L
same,MIC,"[1]; ΔadeN, AdeIJK overexpressed",2 mg/L
same,change in MIC values relative to the parent strain,[1]; {},8- to 16 fold
same,MIC shift as compared to the parent strain,"[2]; AdeA disruption, AB5075",> 64 fold
same,MIC shift as compared to the parent strain,"[2]; AdeB disruption, AB5075",> 8 fold
same,In vitro activity (MIC),[2]; Parent (AB5075),> 64 mg/L
same,In vitro activity (MIC),[2]; adeA::tn in AB5075,1 mg/L
same,In vitro activity (MIC),[2]; adeB::tn in AB5075,8 mg/L
same,In vitro activity (MIC),[2]; adeC::tn in AB5075,> 64 mg/L
same,In vitro activity (MIC),[2]; adeI::tn in AB5075,> 64 mg/L
same,In vitro activity (MIC),[2]; adeJ::tn in AB5075,> 64 mg/L
same,In vitro activity (MIC),[2]; adeK::tn in AB5075,> 64 mg/L
same,In vitro activity (MIC),[2]; adeT::tn in AB5075,> 64 mg/L
CC[n+]1c(-c2ccccc2)c2cc(N)ccc2c2ccc(N)cc21 [ethidium bromide],accumulation of ethidium bromide in ARC7093 versus NCTC 13304,[3],significantly lower
C[C@H]1[C@H](NC(=O)/C(=N\OC(C)(C)C(=O)O)c2csc(N)n2)C(=O)N1S(=O)(=O)O [aztreonam],MIC,"[4]; PBP3 H370Y, overexpressed ADC-30",32 mg/L
same,MIC,"[4]; PBP3 H370Y, overexpressed OXA-23",64 mg/L
same,MIC,"[4]; PBP3 H370Y, overexpressed OXA-24",64 mg/L
same,MIC,"[4]; PBP3 H370Y, overexpressed OXA-66",64 mg/L
same,MIC,"[4]; PBP3 H370Y, overexpressed TEM-1",64 mg/L
same,MIC,"[4]; PBP3 H370Y, β-lactamase None (empty vector)",64 mg/L
same,MIC,"[4]; PBP3 Wildtype, overexpressed ADC-30, read-out: MIC",32 mg/L
same,MIC,"[4]; PBP3 Wildtype, overexpressed OXA-23, read-out: MIC",64 mg/L
same,MIC,"[4]; PBP3 Wildtype, overexpressed OXA-24, read-out: MIC",32 mg/L
same,MIC,"[4]; PBP3 Wildtype, overexpressed OXA-66, read-out: MIC",32 mg/L
same,MIC,"[4]; PBP3 Wildtype, overexpressed TEM-1, read-out: MIC",32 mg/L
same,MIC,"[4]; PBP3 Wildtype, β-lactamase None (empty vector), read-out: MIC",32 mg/L
same,changes in MIC values in the presence of β-lactamase,"[4]; wildtype PBP3 strain, five overexpressed β-lactamases",≤ 2 fold
same,% WT,A. baumannii PBP3 S390T [5],128.6%
same,k inact/K i,A. baumannii PBP3 S395F [6],110 ± 20 ([3]) M^-1s^-1
same,% WT,A. baumannii PBP3 N377Y,72.9%
same,k inact/K i,A. baumannii PBP3 N377Y; average ± SD,510 ± 60 ([2]) M^-1s^-1
same,% WT,A. baumannii PBP3 N392T,22.9%
same,k inact/K i,A. baumannii PBP3 N392T; average ± SD,160 ± 20 ([2]) M^-1s^-1
same,% WT,A. baumannii PBP3 Q488K,65.7%
same,k inact/K i,A. baumannii PBP3 Q488K; average ± SD,460 ± 50 ([2]) M^-1s^-1
same,% WT,A. baumannii PBP3 S395F [7],15.7%
same,% WT,A. baumannii PBP3 H370Y,61.4%
same,k inact/K i,A. baumannii PBP3 H370Y; average ± SD,430 ± 30 ([2]) M^-1s^-1
same,k inact/K i,A. baumannii PBP3 S390T [8],900 ± 300 ([3]) M^-1s^-1
same,% WT,[9],100%
same,k inact/K i,[9]; average ± SD,700 ± 100 ([10]) M^-1s^-1
